Source: PMC7321108, “1-Hydroxyanthraquinones Containing Aryl Substituents as Potent and Selective Anticancer Agents” (Molecules, 2020)
Like-named read-outs stand apart in the source and are kept apart here.

Tests used:
[1] = system: T98G glioblastoma cells; test: MTT cytotoxicity assay, T98G; type: cell-based; conditions: Homo sapiens, 72 h incubation, mean ± SEM of three experiments, read-out: Cytotoxicity (GI50) against T98G
Procedure: (§1) The cytotoxicity of the synthesized series of 4-substituted 5, 13–17, 22, 23, 2-substituted 25–30 and 2,4-disubstituted 1-hydroxy-9,10-anthraquinones 33–38, 40–45 was evaluated against a panel of seven different human cancer cell lines (glioblastoma cancer cells, human prostate cancer cells, T-cellular human leucosis, breast cancer cells) and also a normal cell line of hTERT-immortalized lung fibroblasts, using conventional MTT assay. Doxorubicin (DOX) is clinically used to treat cancer as drug in world and have a very wide antitumor spectrum. That we use them as positive control compounds. The cytotoxicity was determined by measuring the concentration inhibiting human tumor cell viability by 50% (GI50).
(§2) The human cancer cells of the glioblastoma (U-87MG, SNB-19, T98G), prostate cancer cell line (LNCAP, DU-145), the cells of T-cellular human leucosis (MT-4) and human breast cancer cells (MDA-MB-231) were used in this study. The cells were cultured in the RPMI-1640 medium that contained 10% embryonic calf serum, L-glutamine (2 mmol/L), gentamicin ([…]) and lincomycin (30 mkg/mL) in a CO2 incubator at 37 °C. The tested compounds were dissolved in DMSO and added to the cellular culture at the required concentrations. Three wells were used for each concentration. The cells which were incubated without the compounds were used as a control. Cells were placed on 96-well microliter plates and cultivated at 37 °C in 5% CO2/95% air for 72 h. The cell viability was assessed through an MTT [3-(4,5-dimethylthiazol-2-yl)-[…]-2H-tetrazolium bromide] conversion assay. A total of 1% MTT was added to each well. Four hours later, DMSO was added and mixed for 15 min. Optical density (D) of the samples was measured on a BioRad 680 multi-well spectrophotometer (USA) at the wavelength of 450 nm. The 50% cytotoxic dose GI50) of each compound (i.e., the compound concentration that causes the death of 50% of cells in a culture, or decreases the optical density twice as compared to the control wells) was calculated from the data obtained. Statistical processing of the results was performed using the Microsoft Excel-2007, […] 6.0 and GraphPad Prism 5.0 programs. The results are given as an average value ± a deviation from the average (mean ± standard error of the mean (SEM)). Reliability of differences (p) was estimated using the Student t test. The differences with p < 0.05 were considered as reliable. The experimental results are given as the data average values obtained from three independently conducted experiments.

[2] = MTT cytotoxicity assay, normal hTERT-immortalized lung fibroblasts; type: cell-based; conditions: human, hTERT-immortalized lung fibroblasts (normal cell line), 72 h incubation, mean ± SEM of three experiments, read-out: Cytotoxicity (GI50) against hTERT Lung Fibroblasts
Procedure: as §1, §2

[3] = system: U-87MG glioblastoma cells; test: MTT cytotoxicity assay, U-87MG; type: cell-based; conditions: Homo sapiens, 72 h incubation, mean ± SEM of three experiments, read-out: Cytotoxicity (GI50) against U-87MG
Procedure: as §1, §2

[4] = system: SNB-19 glioblastoma cells; test: MTT cytotoxicity assay, SNB-19; type: cell-based; conditions: Homo sapiens, 72 h incubation, mean ± SEM of three experiments, read-out: Cytotoxicity (GI50) against SNB-19
Procedure: as §1, §2

[5] = system: MT-4 cells of T-cellular human leucosis; test: MTT cytotoxicity assay, MT-4; type: cell-based; conditions: MT4, 72 h incubation, mean ± SEM of three experiments, read-out: Cytotoxicity (GI50) against MT-4
Procedure: as §1, §2

[6] = system: LNCAP prostate cancer cells; test: MTT cytotoxicity assay, LNCAP; type: cell-based, human; conditions: 72 h incubation, mean ± SEM of three experiments, read-out: Cytotoxicity (GI50) against LNCAP
Procedure: as §1, §2

[7] = system: MDA-MB-231 breast cancer cells; test: MTT cytotoxicity assay, MDA-MB-231; type: cell-based; conditions: Homo sapiens, 72 h incubation, mean ± SEM of three experiments, read-out: Cytotoxicity (GI50) against MDA-MB-231
Procedure: as §1, §2

[8] = system: DU-145 prostate cancer cells; test: MTT cytotoxicity assay, DU-145; type: cell-based, human; conditions: Homo sapiens, DU-145, 72 h, 72 h incubation, mean ± SEM of three experiments, read-out: Cytotoxicity (GI50) against DU-145
Procedure: as §1, §2

Row | SMILES | melting point | GI50 [1] [µM] | GI50 at 72 h [2] [µM] | GI50 [3] [µM] | GI50 [4] [µM] | GI50 [5] [µM] | GI50 ([6]; Homo sapiens, LNCaP, 72 h) [µM] | GI50 [7] [µM] | GI50 [8] [µM] | GI50 [6] [µM]
1 | COc1cc(-c2ccc3c(c2O)C(=O)c2ccccc2C3=O)cc(OC)c1OC [Compound 24, 1-Hydroxy-2-(3,4,5-trimethoxyphenyl)anthracene-9,10-dione] | 190.1 °C (dec.) |  |  |  |  |  |  |  |  | 
2 | COc1cc(-c2ccc(O)c3c2C(=O)c2ccccc2C3=O)cc(OC)c1OC [Compound 5, 1-Hydroxy-4-(3,4,5-trimethoxyphenyl)anthracene-9,10-dione] | 230.5 °C (dec.) | 72.5 ± 3.21 | 28.6 ± 4.54 | > 100 | 6.7 ± 0.47 | 42 ± 4.14 | 21.1 ± 0.85 | 28.6 ± 1.24 | 14.8 ± 0.52 | 
3 | Cc1ccccc1-c1ccc(O)c2c1C(=O)c1ccccc1C2=O [Compound 14, 1-Hydroxy-4-(o-tolyl)anthracene-9,10-dione] |  | > 100 | > 100 | > 100 | 38.1 ± 1.15 | 65 ± 5.49 | 92 ± 3.93 | > 100 | 41.1 ± 3.34 | 
4 | O=C1c2ccccc2C(=O)c2c(-c3cc(C(F)(F)F)ccc3Cl)ccc(O)c21 [Compound 18, 1-(2-Chloro-5-(trifluoromethyl)phenyl)-4-hydroxyanthracene-9,10-dione] | 184.3 °C (dec.) |  |  |  |  |  |  |  |  | 
5 | O=C1c2ccccc2C(=O)c2c(O)c(-c3cc(F)cc(F)c3)cc(-c3cc(F)cc(F)c3)c21 [Compound 37, 2,4-Di-(3,5-difluorophenyl)-1-hydroxyanthracene-9,10-dione] | 263.3 °C (dec.) | 10.1 ± 0.78 | 10.5 ± 1.98 | 8.7 ± 0.89 | 9.1 ± 0.68 | 56.6 ± 1.28 | 6.2 to 7.2 | 8.2 ± 0.96 | 5.8 ± 0.38 | 6.2 ± 0.43
6 | COc1cc(-c2cc(-c3cc(OC)c(OC)c(OC)c3)c3c(c2O)C(=O)c2ccccc2C3=O)cc(OC)c1OC [Compound 32, 1-Hydroxy-2,4-di-(3,4,5-trimethoxyphenyl)anthracene-9,10-dione] | 214.9 °C (dec.) |  |  |  |  |  |  |  |  | 
7 | O=C1c2ccccc2C(=O)c2c(O)c(-c3cc(C(F)(F)F)ccc3Cl)cc(-c3cc(C(F)(F)F)ccc3Cl)c21 [Compound 38, 2,4-Di-(2-chloro-5-(trifluoromethyl)phenyl)-1-hydroxyanthracene-9,10-dione] |  | 7.8 ± 0.56 | 19.4 ± 0.97 | > 100 | 39.4 ± 2.16 | > 100 | > 100 | 32.5 ± 5.37 | 6.5 ± 0.89 | 
8 | O=C1c2ccccc2C(=O)c2c1ccc(-c1cc(C(F)(F)F)ccc1Cl)c2O [Compound 30, 2-(2-Chloro-5-(trifluoromethyl)phenyl)-1-hydroxyanthracene-9,10-dione] | 188.5 °C (dec.) | 39.2 ± 1.65 | 25.6 ± 5.24 | 21.6 ± 1.42 | 16.8 ± 2.11 | 55.1 ± 3.24 | > 100 | 39.1 ± 1.71 | 12.5 ± 3.17 | 
9 | COc1ccc(-c2cc(-c3cc(OC)c(OC)c(OC)c3)c(O)c3c2C(=O)c2ccccc2C3=O)cc1 [Compound 44, 1-Hydroxy-4-(4-methoxyphenyl)-2-(3,4,5-trimethoxyphenyl)anthracene-9,10-dione] |  | 16.5 ± 1.26 | 36.2 ± 1.31 | > 100 | 41.8 ± 5.27 | 40.5 ± 6.44 | 14.2 ± 3.12 | 19.1 ± 0.98 | 15.2 ± 1.06 | 
10 | COc1cc(-c2cc(-c3ccccc3)c3c(c2O)C(=O)c2ccccc2C3=O)cc(OC)c1OC [Compound 43, 1-Hydroxy-4-phenyl-2-(3,4,5-trimethoxyphenyl)anthracene-9,10-dione] | 60.4 °C (dec.) | 16.1 ± 0.78 | 34.1 ± 0.92 | > 100 | 19.2 ± 2.52 | > 100 | > 100 | 17.1 ± 1.55 | 18.6 ± 2.45 | 

Second part, led by results:

Row | melting point | SMILES | GI50 [1] [µM] | GI50 at 72 h [2] [µM] | GI50 [3] [µM] | GI50 [4] [µM] | GI50 [5] [µM] | GI50 ([6]; Homo sapiens, LNCaP, 72 h) [µM] | GI50 [7] [µM] | GI50 [8] [µM] | GI50 [6] [µM]
11 | 148.5 °C (dec.) | Cc1ccccc1-c1ccc2c(c1O)C(=O)c1ccccc1C2=O [Compound 26, 1-Hydroxy-2-(o-tolyl)anthracene-9,10-dione] | > 100 | 87.5 ± 9.11 | > 100 | > 100 | 80 ± 5.21 | 74 ± 3.74 | > 100 | 70.2 ± 1.47 | 
12 | 214.2 to 214.3 °C | O=C1c2ccccc2C(=O)c2c(-c3cc(F)cc(F)c3)ccc(O)c21 [Compound 17, 1-(3,5-Difluorophenyl)-4-hydroxyanthracene-9,10-dione] | 9.2 ± 0.56 | 26.6 ± 2.44 | 8.2 ± 1.35 | 10.2 ± 0.86 | 38.3 ± 3.16 | 16.7 ± 1.34 | 9.6 ± 0.69 | 3.5 ± 0.96 | 
13 | 186 °C (dec.) | O=C1c2ccccc2C(=O)c2c(-c3ccc(Cl)cc3C(F)(F)F)ccc(O)c21 [Compound 19, 1-(4-Chloro-2-(trifluoromethyl)phenyl)-4-hydroxyanthracene-9,10-dione] |  |  |  |  |  |  |  |  | 
14 | 150 to 152 °C | O=C1c2ccccc2C(=O)c2c(O)c(-c3ccc(Cl)cc3C(F)(F)F)cc(-c3ccc(Cl)cc3C(F)(F)F)c21 [Compound 39, 2,4-Di-(4-Chloro-2-(trifluoromethyl)phenyl)-1-hydroxyanthracene-9,10-dione] |  |  |  |  |  |  |  |  | 
15 | 225 to 228 °C | O=C1c2ccccc2C(=O)c2c(O)c(-c3ccccc3)cc(-c3ccccc3)c21 [Compound 33, 1-Hydroxy-2,4-diphenylanthracene-9,10-dione] | 24.6 ± 0.85 | 52.8 ± 8.05 | 56.8 ± 2.36 | 18.3 ± 1.12 | > 100 | 21.3 ± 1.16 | 28.3 ± 1.06 | > 100 | 
16 | 192.9 °C (dec.) | COc1cccc(-c2cc(-c3cccc(OC)c3OC)c3c(c2O)C(=O)c2ccccc2C3=O)c1OC [Compound 36, 2,4-Di-(2,3-dimethoxyphenyl)-1-hydroxyanthracene-9,10-dione] | 15.5 ± 0.92 | 12.2 ± 2.08 | 36.8 ± 1.42 | 37 ± 1.41 | 25.8 ± 0.94 | 16.7 ± 1.86 | 22.6 ± 0.86 | 10.6 ± 1.12 | 
17 | 119.8 °C (dec.) | Cc1ccccc1-c1cc(-c2ccccc2C)c2c(c1O)C(=O)c1ccccc1C2=O [Compound 34, 1-Hydroxy-2,4-di-o-tolylanthracene-9,10-dione] | > 100 | 72.2 ± 4.18 | > 100 | > 100 | > 100 | > 100 | > 100 | > 100 | 
18 | 187.1 °C (dec.) | COc1ccc(-c2cc(Br)c3c(c2O)C(=O)c2ccccc2C3=O)cc1 [Compound 40, 4-Bromo-1-hydroxy-2-(4-methoxyphenyl)anthracene-9,10-dione] | 8.1 ± 0.98 | 16.5 ± 0.46 | 10.2 ± 1.03 | 6.1 ± 0.38 | 35.6 ± 3.28 | 22.2 ± 1.26 | 10.5 ± 1.03 | 7.1 ± 0.72 | 
19 | 264.3 °C (dec.) | O=C1c2ccccc2C(=O)c2c1ccc(-c1cc(F)cc(F)c1)c2O [Compound 29, 2-(3,5-Difluorophenyl)-1-hydroxyanthracene-9,10-dione] | 29.6 ± 2.21 | 28.1 ± 2.12 | 34.1 ± 2.18 | 15.3 ± 0.71 | 36.6 ± 1.68 | 36.2 ± 2.05 | 35.2 ± 1.88 | 13.8 ± 1.05 | 
